Assay [1] relates to rat model of an acute unilateral labyrinthectomy. The note with it: by activation of the vestibulo-cerebellum and deactivation of the posterolateral thalamus; ref (4); cited from earlier work.
Assay [2] has as its system patients with postural imbalance / gait disorder; subjects. Briefly: clinical examination and patient/family reports of balance, gait, dizziness and falls. Format: in vivo, human. The source says:
In addition to the mobility assessments disclosed above, mobility in a subject having a mobility disorder associated with ageing may be tested, for example, using assessments of balance and/or through monitoring the number of falls experienced by the subject.

Structures are written as SMILES.

With `CC(=O)N[C@@H](CC(C)C)C(=O)O` [N-acetyl-L-leucine], in assay [1], the “effect on postural compensation” value is “significant effect”.
For the compound `N[C@@H](Cc1ccc(O)c(O)c1)C(=O)O` [L-Dopa], the improvement during treatment result in assay [2] (Example 2: person, balance disorder, Datscan borderline pathological) is reported as “no improvement was observed”; in assay [2] (Example 5: patient, progressive gait disorder), “No improvement was observed”.
